In publication PMC10726357, “New Genetically Engineered Derivatives of Antibacterial Darobactins Underpin Their Potential for Antibiotic Development” (Journal of Medicinal Chemistry, 2023):
Converted amounts (≈) assume the structure as drawn. Read-outs that look alike come from different tables or passages of the source. Where no end group is shown, it is not given here.

Legend:
A. baumannii DSM-30008 = assay type: cell-based, Acinetobacter baumannii
Experimental: (§1) The antibacterial activity of novel darobactins was determined by the evaluation of the minimum inhibitory concentration (MIC) as previously described for crude extracts and for pure darobactin analogues.[12]

P. aeruginosa PA01 [1] = assay type: cell-based, Pseudomonas aeruginosa
Experimental: as §1

Gram-negative bacteria = details: result in words; cited from earlier work
E. coli ATCC25922 = assay type: cell-based, Escherichia coli
Experimental: as §1

K. pneumoniae DSM-30104 = assay type: cell-based, Klebsiella pneumoniae
Experimental: as §1

[2] = target: T1, EcBamA (E. coli BamA barrel domain) (Escherichia coli, UniProt P0A940, C690S/C700S); test: Microscale thermophoresis (MST) KD determination; assay type: binding
T1 construct: The E. coli BamA barrel domain (BamA-β) (residues 421–810, C690S, C700S); made in house
Experimental: As an alternative to the previously published methods using isothermal titration calorimetry (ITC), we established a KD determination assay using microscale thermophoresis (MST) to enable higher throughput.
Microscale thermophoresis (MST) (serial no. 201709-BR-N024, Monolith NT.115 Micro Scale Thermophoresis, NanoTemper Technologies GmbH) was performed according to the standard protocol from the manufacturer NanoTemper Technologies GmbH using a Monolith His-Tag Labeling Kit RED-tris-NTA second-generation kit. The buffer used was HEPES (50 mM), pH 7.6, MgCl2 (5 mM), and Tween (0.05%). […] A 1:1 dilution of the ligand over 16 samples was performed using a stock of ligand (in water) diluted in HEPES buffer. Nonhydrophobic capillary tubes were used. A pretest to check for the labeling and compound fluorescence was performed for every sample followed by a binding affinity (KD) determination. Each sample was measured after 15 min of incubation at RT and analyzed in MO Control version 1.6.

[3] = system: P. aeruginosa 83979 (MDR clinical isolate); test: microbe, parasite or virus in culture; details: Pseudomonas aeruginosa
Experimental: as §1

[4] = system: P. aeruginosa 84389 (MDR clinical isolate); test: microbe, parasite or virus in culture; details: Pseudomonas aeruginosa, read-out: MIC P. aeruginosa 84389
Experimental: as §1

[5] = system: Klebsiella pneumoniae DSM-30104; test: Antibacterial activity screening of darobactin-containing crude extracts; assay type: cell-based; design: key: two-fold serial dilution from 1:15 (A) (concentration factor: 6.67×); low activity A B C D E F G H high activity; low activity A B C D E F G H high activity; low activity A B C D E F G H high activity; low activity A B C D E F G H high activity; low activity A B C D E F G H high activity; low activity A B C D E F G H high activity; to 1:3,840 (H) (concentration factor: 0.05×); details: derivative-containing crude extract, two-fold serial dilution
Experimental: (§2) The extracts of production clones for all derivatives were prepared and tested for their antibacterial activity against E. coli ATCC 25922, P. aeruginosa PA01, K. pneumoniae DSM-30104, and A. baumannii DSM-30008.
as §1

[6] = system: Escherichia coli ATCC 25922; test: as above; assay type: cell-based; design: key: two-fold serial dilution from 1:15 (A) (concentration factor: 6.67×); low activity A B C D E F G H high activity; low activity A B C D E F G H high activity; low activity A B C D E F G H high activity; low activity A B C D E F G H high activity; low activity A B C D E F G H high activity; low activity A B C D E F G H high activity; to 1:3,840 (H) (concentration factor: 0.05×); details: derivative-containing crude extract, two-fold serial dilution
Experimental: as §2, §1

[7] = system: Acinetobacter baumannii DSM-30008; test: as above; assay type: cell-based; design: key: two-fold serial dilution from 1:15 (A) (concentration factor: 6.67×); low activity A B C D E F G H high activity; low activity A B C D E F G H high activity; low activity A B C D E F G H high activity; low activity A B C D E F G H high activity; low activity A B C D E F G H high activity; low activity A B C D E F G H high activity; to 1:3,840 (H) (concentration factor: 0.05×); details: derivative-containing crude extract, two-fold serial dilution
Experimental: as §2, §1

P. aeruginosa PA01 [8] = test: as above; assay type: cell-based, Pseudomonas aeruginosa; design: key: two-fold serial dilution from 1:15 (A) (concentration factor: 6.67×); low activity A B C D E F G H high activity; low activity A B C D E F G H high activity; low activity A B C D E F G H high activity; low activity A B C D E F G H high activity; low activity A B C D E F G H high activity; low activity A B C D E F G H high activity; to 1:3,840 (H) (concentration factor: 0.05×); details: derivative-containing crude extract, two-fold serial dilution
Experimental: as §2, §1

## N=C(N)NCC[C@H]1c2ccc3c(c[nH]c3c2)[C@H]2Oc3cccc4c(c[nH]c34)C[C@H](N)C(=O)N[C@@H](CC(N)=O)C(=O)N[C@@H]2C(=O)N[C@@H](CO)C(=O)N[C@@H]1C(=O)N[C@@H](CO)C(=O)N[C@@H](Cc1ccccc1)C(=O)O [DD, darobactin D, reference compound]
A. baumannii DSM-30008; DSM-30008
  MIC A. baumannii [DSM-30008]: 4 to 8 µg/mL
P. aeruginosa PA01 [1]
  MIC P. aeruginosa [PA01]: 2 µg/mL (≈ 2.01 µM)
Gram-negative bacteria
  published antibacterial activity: inactive
E. coli ATCC25922; ATCC25922
  MIC E. coli [ATCC25922]: 1 µg/mL (≈ 1.01 µM)
K. pneumoniae DSM-30104; DSM-30104
  MIC K. pneumoniae [DSM-30104]: 8 to 16 µg/mL

## C[C@@H](O)[C@@H]1NC(=O)[C@H]2NC(=O)[C@H](CCC(=O)O)NC(=O)[C@@H](N)Cc3c[nH]c4c(cccc34)O[C@@H]2c2c[nH]c3cc(ccc23)[C@H](CCCN)[C@@H](C(=O)N[C@@H](CCCNC(=N)N)C(=O)N[C@@H](Cc2c[nH]c3ccccc23)C(=O)O)NC1=O [D58]
A. baumannii DSM-30008; pure compound, n = 2, Table 2
  MIC A. baumannii [DSM-30008]: 2 µg/mL (≈ 1.81 µM)
P. aeruginosa PA01 [1]; pure compound, n = 2, Table 2
  MIC P. aeruginosa [PA01]: 8 µg/mL (≈ 7.25 µM)
HepG2; cytotoxicity, n = 2
  IC50 HepG2: > 37 µg/mL
E. coli ATCC25922; pure compound, n = 2, Table 2
  MIC E. coli [ATCC25922]: 8 µg/mL (≈ 7.25 µM)
K. pneumoniae DSM-30104; pure compound, n = 2, Table 2
  MIC K. pneumoniae [DSM-30104]: 16 µg/mL (≈ 14.5 µM)
[2]
  Kd: 5.1 ± 3.7 µM

## C[C@@H](O)[C@@H]1NC(=O)[C@H]2NC(=O)[C@H](CO)NC(=O)[C@@H](N)Cc3c[nH]c4c(cccc34)O[C@@H]2c2c[nH]c3cc(ccc23)[C@H](CCCN)[C@@H](C(=O)N[C@@H](CCCNC(=N)N)C(=O)N[C@@H](Cc2c[nH]c3ccccc23)C(=O)O)NC1=O [D64]
A. baumannii DSM-30008; DSM-30008
  MIC A. baumannii [DSM-30008]: 0.5 µg/mL (≈ 0.471 µM)
P. aeruginosa PA01 [1]
  MIC P. aeruginosa [PA01]: 2 µg/mL (≈ 1.88 µM)
HepG2
  IC50 HepG2: > 37 µg/mL
E. coli ATCC25922; ATCC25922
  MIC E. coli [ATCC25922]: 4 µg/mL (≈ 3.77 µM)
K. pneumoniae DSM-30104; DSM-30104
  MIC K. pneumoniae [DSM-30104]: 16 µg/mL (≈ 15.1 µM)
[2]
  Kd: 5.1 ± 0.7 µM

## C[C@@H](O)[C@@H]1NC(=O)[C@H]2NC(=O)[C@H](CCC(N)=O)NC(=O)[C@@H](N)Cc3c[nH]c4c(cccc34)O[C@@H]2c2c[nH]c3cc(ccc23)[C@H](CCCN)[C@@H](C(=O)N[C@@H](CCCNC(=N)N)C(=O)N[C@@H](Cc2c[nH]c3ccccc23)C(=O)O)NC1=O [D61]
A. baumannii DSM-30008; pure compound, n = 2, Table 2
  MIC A. baumannii [DSM-30008]: 0.5 µg/mL (≈ 0.454 µM)
P. aeruginosa PA01 [1]; pure compound, n = 2, Table 2
  MIC P. aeruginosa [PA01]: 4 µg/mL (≈ 3.63 µM)
HepG2; cytotoxicity, n = 2
  IC50 HepG2: > 37 µg/mL
E. coli ATCC25922; pure compound, n = 2, Table 2
  MIC E. coli [ATCC25922]: 2 µg/mL (≈ 1.81 µM)
K. pneumoniae DSM-30104; pure compound, n = 2, Table 2
  MIC K. pneumoniae [DSM-30104]: 8 µg/mL (≈ 7.26 µM)
[2]
  Kd: 3.6 ± 0.6 µM

## C[C@@H](O)[C@@H]1NC(=O)[C@H]2NC(=O)[C@H](CC(=O)O)NC(=O)[C@@H](N)Cc3c[nH]c4c(cccc34)O[C@@H]2c2c[nH]c3cc(ccc23)[C@H](CCCN)[C@@H](C(=O)N[C@@H](CCCNC(=N)N)C(=O)N[C@@H](Cc2c[nH]c3ccccc23)C(=O)O)NC1=O [D60]
A. baumannii DSM-30008; DSM-30008
  MIC A. baumannii [DSM-30008]: 2 µg/mL (≈ 1.84 µM)
P. aeruginosa PA01 [1]
  MIC P. aeruginosa [PA01]: 4 µg/mL (≈ 3.67 µM)
HepG2
  IC50 HepG2: > 37 µg/mL
E. coli ATCC25922; ATCC25922
  MIC E. coli [ATCC25922]: 16 µg/mL (≈ 14.7 µM)
K. pneumoniae DSM-30104; DSM-30104
  MIC K. pneumoniae [DSM-30104]: 16 µg/mL (≈ 14.7 µM)

## C[C@@H](O)[C@@H]1NC(=O)[C@H]2NC(=O)[C@H](CC(N)=O)NC(=O)[C@@H](N)Cc3c[nH]c4c(cccc34)O[C@@H]2c2c[nH]c3cc(ccc23)[C@H](CCNC(=N)N)[C@@H](C(=O)N[C@@H](CCCNC(=N)N)C(=O)N[C@@H](Cc2c[nH]c3ccccc23)C(=O)O)NC1=O [D39]
A. baumannii DSM-30008; DSM-30008
  MIC A. baumannii [DSM-30008]: 0.5 to 2 µg/mL
P. aeruginosa PA01 [1]
  MIC P. aeruginosa [PA01]: 2 µg/mL (≈ 1.79 µM)
HepG2
  IC50 HepG2: >37 µg/mL
E. coli ATCC25922; ATCC25922
  MIC E. coli [ATCC25922]: 4 to 8 µg/mL
K. pneumoniae DSM-30104; DSM-30104
  MIC K. pneumoniae [DSM-30104]: 4 to 8 µg/mL
[2]
  Kd: 10.9 ± 3.5 µM

## darobactin E (WSWSKSF) [DE, native darobactin analogue, core peptide WSWSKSF]
Gram-negative bacteria
  published antibacterial activity: rather inactive

## C[C@@H](O)[C@@H]1NC(=O)[C@H]2NC(=O)[C@H](CC(N)=O)NC(=O)[C@@H](N)Cc3c[nH]c4c(cccc34)O[C@@H]2c2c[nH]c3cc(ccc23)[C@H](CCCN)[C@@H](C(=O)N[C@@H](CCC(N)=O)C(=O)N[C@@H](Cc2c[nH]c3ccccc23)C(=O)O)NC1=O [D74]
A. baumannii DSM-30008; DSM-30008
  MIC A. baumannii [DSM-30008]: 4 µg/mL (≈ 3.77 µM)
P. aeruginosa PA01 [1]
  MIC P. aeruginosa [PA01]: 2 µg/mL (≈ 1.89 µM)
HepG2
  IC50 HepG2: > 37 µg/mL
E. coli ATCC25922; ATCC25922
  MIC E. coli [ATCC25922]: 4 µg/mL (≈ 3.77 µM)
K. pneumoniae DSM-30104; DSM-30104
  MIC K. pneumoniae [DSM-30104]: 16 µg/mL (≈ 15.1 µM)

## C[C@@H](O)[C@H]1C(=O)N2C(C(=O)O)=C(S[C@@H]3CN[C@H](C(=O)N(C)C)C3)[C@H](C)[C@H]12 [meropenem]
[3]; BAL, read-out: resistance profile, MIC, P. aeroginosa 83979
  MIC: > 16 µg/mL
[3]; read-out: MIC P. aeruginosa 83979
  MIC: 16 µg/mL (≈ 41.7 µM)
[4]
  MIC: 16 µg/mL (≈ 41.7 µM)

## D66: novel darobactin derivative, core peptide WNWTKCW (not fully specified (bridges); also: darobactin bicyclic crosslinks)
[5]
  antimicrobial activity of crude extract: highest dilution factor with full growth inhibition, K. pneumoniae DSM-30104: A
[6]
  antimicrobial activity of crude extract: highest dilution factor with full growth inhibition, E. coli ATCC25922: A
[7]
  antimicrobial activity of crude extract: highest dilution factor with full growth inhibition, A. baumannii DSM-30008: C
P. aeruginosa PA01 [8]
  antimicrobial activity of crude extract: highest dilution factor with full growth inhibition, P. aeruginosa PA01: B

## D70: novel darobactin derivative, core peptide WSWSKRW (also: darobactin bicyclic crosslinks)
[5]
  antimicrobial activity of crude extract: highest dilution factor with full growth inhibition, K. pneumoniae DSM-30104: C
[6]
  antimicrobial activity of crude extract: highest dilution factor with full growth inhibition, E. coli ATCC25922: C
[7]
  antimicrobial activity of crude extract: highest dilution factor with full growth inhibition, A. baumannii DSM-30008: E
P. aeruginosa PA01 [8]
  antimicrobial activity of crude extract: highest dilution factor with full growth inhibition, P. aeruginosa PA01: D
